Measured values as given in patent publication US10273218B2, “BCL-3 inhibitors” (University College Cardiff Consultants Limited, priority 2014, dated 2019).

SMILES	melting point
O=C(Nc1cccc(F)c1C(=O)NCCN1CCOCC1)c1ccccc1F [Compound 13, 2-fluoro-6-(2-fluorobenzamido)-N-(2-morpholinoethyl) benzamide]	88 to 90 °C
O=C(Nc1cc(F)ccc1C(=O)NCCN1CCOCC1)c1ccccc1F [Compound 14, 4-fluoro-2-(2-fluorobenzamido)-N-(2-morpholinoethyl) benzamide]	104 to 106 °C
COc1cccc(C(=O)NCCN2CCOCC2)c1NC(=O)c1cccc(F)c1 [Compound 17, 2-(3-fluorobenzamido)-3-methoxy-N-(2-morpholinoethyl) benzamide]	128 to 131 °C
COc1cc(NC(=O)c2ccccc2F)c(C(=O)NCCN2CCOCC2)cc1OC [Compound 19, 2-(2-fluorobenzamido)-4,5-dimethoxy-N-(2-morpholinoethyl) benzamide]	136 °C
COc1cc(NC(=O)c2ccccc2F)c(C(=O)NCCN2CCOCC2)c(OC)c1OC [Compound 20, 6-(2-fluorobenzamido)-2,3,4-trimethoxy-N-(2-morpholinoethyl) benzamide]	141 °C
COc1ccccc1C(=O)Nc1c(OC)cccc1C(=O)NCCN1CCOCC1 [Compound 25, 3-methoxy-2-(2-methoxybenzamido)-N-(2-morpholinoethyl) benzamide]	105 to 107 °C
COc1ccc(C(=O)Nc2cc(OC)c(OC)c(OC)c2C(=O)NCCN2CCOCC2)cc1 [Compound 27, 2,3,4-trimethoxy-6-(4-methoxybenzamido)-N-(2-morpholinoethyl)benzamide]	143 °C
COc1ccc(C(=O)Nc2c(OC)cccc2C(=O)NCCN2CCOCC2)c(OC)c1 [Compound 29, 2-(2,4-dimethoxybenzamido)-3-methoxy-N-(2-morpholinoethyl) benzamide]	103 to 106 °C
COc1cc(NC(=O)c2cccnc2)c(C(=O)NCCN2CCOCC2)c(OC)c1OC [Compound 33, N-(3,4,5-trimethoxy-2-((2-morpholinoethyl)carbamoyl)phenyl) nicotinamide]	155 °C
O=C(Nc1ccccc1C(=O)NCCCN1CCOCC1)c1ccccc1F [Compound 34, 2-fluoro-N-(2-((3-morpholinopropyl)carbamoyl)phenyl) benzamide]	76 to 79 °C
O=C(NCCCN1CCOCC1)c1ccccc1NC(=O)c1cccc2ccccc12 [Compound 36, N-(2-((3-morpholinopropyl)carbamoyl)phenyl)-1-naphthamide]	110 to 112 °C
COc1cc(NC(=O)c2ccccc2F)c(C(=O)NCCN2CCN(C)CC2)cc1OC [Compound 59, 2-(2-fluorobenzamido)-4,5-dimethoxy-N-(2-(4-methylpiperazin-1-yl)ethyl)benzamide]	60 °C
COc1cc(NC(=O)c2ccccc2F)c(C(=O)NCCN2CCN(C)CC2)c(OC)c1OC [Compound 60, 6-(2-fluorobenzamido)-2,3,4-trimethoxy-N-(2-(4-methylpiperazin-1-yl)ethyl)benzamide]	130 °C
COc1ccc(C(=O)Nc2cc(OC)c(OC)c(OC)c2C(=O)NCCN2CCN(C)CC2)cc1 [Compound 62, 2,3,4-trimethoxy-6-(4-methoxybenzamido)-N-(2-(4-methylpiperazin-1-yl)ethyl)benzamide]	115 °C
COc1cc(NC(=O)c2cccnc2)c(C(=O)NCCN2CCN(C)CC2)cc1OC [Compound 64, N-(4,5-dimethoxy-2-((2-(4-methylpiperazin-1-yl)ethyl)carbamoyl)phenyl)nicotinamide]	126 °C
COc1cc(NC(=O)c2cccnc2)c(C(=O)NCCN2CCN(C)CC2)c(OC)c1OC [Compound 65, N-(3,4,5-trimethoxy-2-((2-(4-methylpiperazin-1-yl)ethyl)carbamoyl)phenyl)nicotinamide]	143 °C
CN1CCN(CCCNC(=O)c2ccccc2NC(=O)c2cccc3ccccc23)CC1 [Compound 68, N-(2-((3-(4-methylpiperazin-1-yl)propyl)carbamoyl)phenyl)-1-naphthamide]	98 to 100 °C
O=C(Nc1ccccc1C(=O)NCCc1ccccc1)c1ccc(Cl)cc1 [Compound 76, 2-(4-chlorobenzamido)-N-phenethylbenzamide]	104 to 106 °C
O=C(Nc1cccc(F)c1C(=O)NCCc1ccccc1)c1ccccc1F [Compound 81, 2-fluoro-6-(2-fluorobenzamido)-N-phenethylbenzamide]	96 to 98 °C

The remaining lines, values ahead:

melting point	SMILES
90 to 92 °C	O=C(NCCN1CCOCC1)c1ccccc1NC(=O)c1ccccc1C(F)(F)F [Compound 9, N-(2-morpholinoethyl)-2-(2-(trifluoromethyl)benzamido) benzamide]
99 to 101 °C	O=C(Nc1ccccc1C(=O)NCCN1CCOCC1)c1ccc(C(F)(F)F)cc1 [Compound 11, N-(2-morpholinoethyl)-2-(4-(trifluoromethyl)benzamido) benzamide]
148 to 151 °C	COc1cccc(C(=O)NCCN2CCOCC2)c1NC(=O)c1ccc(F)cc1 [Compound 18, 2-(4-fluorobenzamido)-3-methoxy-N-(2-morpholinoethyl) benzamide]
110 to 113 °C	COc1cccc(C(=O)Nc2c(OC)cccc2C(=O)NCCN2CCOCC2)c1 [Compound 26, 3-methoxy-2-(3-methoxybenzamido)-N-(2-morpholinoethyl) benzamide]
85 °C	O=C(Nc1ccccc1C(=O)NCCN1CCOCC1)c1cccnc1 [Compound 32, N-(2-((2-morpholinoethyl)carbamoyl)phenyl)nicotinamide]
112 to 114 °C	COc1ccc(C(=O)Nc2ccccc2C(=O)NCCCN2CCOCC2)cc1 [Compound 35, 2-(4-methoxybenzamido)-N-(3-morpholinopropyl)benzamide]
103 to 105 °C	O=C(Nc1ccccc1C(=O)NCCCN1CCOCC1)c1ccc2ccccc2c1 [Compound 37, N-(2-((3-morpholinopropyl)carbamoyl)phenyl)-2-naphthamide]
98 °C	O=C(Nc1ccccc1C(=O)NCCN1CCNCC1)c1ccc([N+](=O)[O-])cc1 [Compound 38, 2-(4-nitrobenzamido)-N-(2-(piperazin-1-yl)ethyl)benzamide]
60 °C	O=C(Nc1ccccc1C(=O)NCCN1CCNCC1)c1ccc(Cl)cc1 [Compound 39, 2-(4-chlorobenzamido)-N-(2-(piperazin-1-yl)ethyl)benzamide]
91 °C	COc1ccc(C(=O)Nc2ccccc2C(=O)NCCN2CCNCC2)cc1 [Compound 42, 2-(4-methoxybenzamido)-N-(2-(piperazin-1-yl)ethyl)benzamide]
68 °C	O=C(Nc1ccccc1C(=O)NCCN1CCNCC1)c1cc(F)cc(F)c1 [Compound 43, 3,5-difluoro-N-(2-((2-(piperazin-1-yl)ethyl)carbamoyl)phenyl) benzamide]
79 °C	O=C(NCCN1CCNCC1)c1ccccc1NC(=O)c1c(F)cccc1F [Compound 44, 2,6-difluoro-N-(2-((2-(piperazin-1-yl)ethyl)carbamoyl)phenyl) benzamide]
84 °C	O=C(Nc1ccccc1C(=O)NCCN1CCNCC1)c1ccc(F)cc1F [Compound 45, 2,4-difluoro-N-(2-((2-(piperazin-1-yl)ethyl)carbamoyl)phenyl) benzamide]
80 °C	CN1CCN(CCNC(=O)c2ccccc2NC(=O)c2ccccc2)CC1 [Compound 47, 2-benzamido-N-(2-(4-methylpiperazin-1-yl)ethyl)benzamide]
122 °C	CN1CCN(CCNC(=O)c2ccccc2NC(=O)c2ccc([N+](=O)[O-])cc2)CC1 [Compound 48, N-(2-(4-methylpiperazin-1-yl)ethyl)-2-(4-nitrobenzamido) benzamide]
81 °C	CN1CCN(CCNC(=O)c2ccccc2NC(=O)c2cccc(F)c2)CC1 [Compound 50, 2-(3-fluorobenzamido)-N-(2-(4-methylpiperazin-1-yl)ethyl) benzamide]
104 °C	CN1CCN(CCNC(=O)c2ccccc2NC(=O)c2cccc(Cl)c2)CC1 [Compound 51, 2-(3-chlorobenzamido)-N-(2-(4-methylpiperazin-1-yl)ethyl) benzamide]
99 °C	CN1CCN(CCNC(=O)c2ccccc2NC(=O)c2ccc(Cl)cc2)CC1 [Compound 52, 2-(4-chlorobenzamido)-N-(2-(4-methylpiperazin-1-yl)ethyl) benzamide]
111 °C	COc1ccccc1C(=O)Nc1ccccc1C(=O)NCCN1CCN(C)CC1 [Compound 53, 2-methoxy-N-(2-((2-(4-methylpiperazin-1-yl)ethyl)carbamoyl)phenyl)benzamide]
114 °C	COc1ccc(C(=O)Nc2ccccc2C(=O)NCCN2CCN(C)CC2)cc1 [Compound 54, 2-(4-methoxybenzamido)-N-(2-(4-methylpiperazin-1-yl)ethyl) benzamide]
111 °C	CN1CCN(CCNC(=O)c2ccccc2NC(=O)c2cc(F)cc(F)c2)CC1 [Compound 56, 3,5-difluoro-N-(2-((2-(4-methylpiperazin-1-yl)ethyl)carbamoyl)phenyl)benzamide]
121 to 122 °C	CN1CCN(CCNC(=O)c2ccccc2NC(=O)c2ccc(F)cc2F)CC1 [Compound 57, 2,4-difluoro-N-(2-((2-(4-methylpiperazin-1-yl)ethyl)carbamoyl)phenyl)benzamide]
110 to 112 °C	COc1ccc(C(=O)Nc2ccccc2C(=O)NCCN2CCN(C)CC2)c(F)c1 [Compound 58, 2-fluoro-4-methoxy-N-(2-((2-(4-methylpiperazin-1-yl)ethyl)carbamoyl)phenyl)benzamide]
70 °C	COc1ccc(C(=O)Nc2cc(OC)c(OC)cc2C(=O)NCCN2CCN(C)CC2)cc1 [Compound 61, 4,5-dimethoxy-2-(4-methoxybenzamido)-N-(2-(4-methylpiperazin-1-yl)ethyl)benzamide]
99 °C	CN1CCN(CCNC(=O)c2ccccc2NC(=O)c2cccnc2)CC1 [Compound 63, N-(2-((2-(4-methylpiperazin-1-yl)ethyl)carbamoyl)phenyl) nicotinamide]
71 to 72 °C	CN1CCN(CCCNC(=O)c2ccccc2NC(=O)c2ccc3ccccc3c2)CC1 [Compound 69, N-(2-((3-(4-methylpiperazin-1-yl)propyl)carbamoyl)phenyl)-2-naphthamide]
